Measurements: patent US20240423973A1, “COMPOUNDS, PHARMACEUTICAL COMPOSITIONS, AND METHODS FOR THE TREATMENT, PREVENTION, OR MANAGEMENT OF HYPERPROLIFERATIVE DISORDERS” (VINCERX PHARMA GMBH, priority 2021, published 2024)
Counter-ions that a name gives are not always drawn. *1 amine or outer side, *2 acyl side, *3 side chain or, on linkers, in order; H or OH if unused. Where a SMILES comes first, the peptide text is derived from it. [ ]: non-standard residue; d: D form. The star is where a group is joined. X1 = CCCNC(=O)Nc1cccc(S(=O)(=O)Nc2cccc([C@@H](CC(=O)O)NC(=O)Nc3ccc(N*)cc3)c2)c1; Camptothecin(7-Et) = CCc1c2c(nc3ccccc13)-c1cc3c(c(=O)n1C2)COC(=O)[C@@]3(CC)O*; CO = O=C([*:1])[*:2]; Sar = CNCC(=O)O

Columns and labels:
NCI H292 [1] = experiment: Cytotoxicity assay (Version 2), automated, AC50; type: cell-based, human; details: NCI H292 cells, Version 2, activity concentration at -50%, 4 parameter Hill-fit
Method: (§1) Cultivation of cells was performed according to standard procedures with the media recommended by the provider. The cells, in a total volume of 100 μL, were seeded in a 96-well plate with a white bottom (#3610). After a 24 h incubation period at 37° C. and 5% CO2, the medium was exchanged by adding 90 μL fresh medium. The treatment started by adding the test compound in 10 μL of culture medium to the cells in triplicates. Concentrations ranging from 10^−5 M to 10^−13 M were chosen. Two identically treated sets of samples were prepared. One set was treated with the test compound alone, whereas to the second set the compound and 10 nM elastase was added followed by a 72 h incubation period at 37° C. and 5% CO2. The proliferation was detected using the MTT assay (ATCC). At the end of the incubation period the MTT reagent was added to all samples for 4h. Lysis of the cells followed by addition of the detergent was done overnight. The formed dye was detected at 570 nm. The proliferation of untreated but otherwise identically handled cells was define as the […].
(§2) The Cytotoxicity assay (Version 2) was performed as above described. Some changes were applied as the assays were performed in an automated fashion and the IC50 values determination was changed. Here the change in metabolic activity of the cells, in percent, was calculated by normalization of the measured values to the absorbance values of medium containing wells without cells (=−100% ) and the absorbance of the DMSO-treated cells (=0% ). AC50 values (activity concentration at -50% o) were determined by means of a 4 parameter Hill-fit using GeneData Screener software.

HT29 [2] = experiment: Cytotoxicity assay (Version 2), automated, AC50; type: cell-based, human; details: HT29 cells, Version 2, activity concentration at -50%, 4 parameter Hill-fit
Method: as §1, §2

786-O [3] = experiment: Cytotoxicity assay (Version 2), automated, AC50; type: cell-based, human; details: 786-O cells, Version 2, activity concentration at -50%, 4 parameter Hill-fit
Method: as §1, §2

SUM149 [4] = experiment: Cytotoxicity assay (Version 2), automated, AC50; type: cell-based; details: SUM149 cells, Version 2, activity concentration at -50%, 4 parameter Hill-fit
Method: as §1, §2

[5] = Compound stability in buffer; type: physicochemical; details: buffer pH 7.4, 4-hour assay
Method: (§3) Compound B1, Compound C2, and Compound C3 were evaluated for stability in plasma and/or buffer. Compound B1 was stable in rat plasma at 37° C. (FIG. 1 panel (a)) and in buffer at pH 7.4 (FIG. 1 panel (b)) for the duration of the 4-hour assay.
Method for measurement of stability in buffer: 0.15 mg of the test compound are solved in 0.1 ml dimethylsulfoxide and 0.4 ml acetonitrile. For complete dissolution the HPLC vial with the sample solution is shaken and sonicated. Then 1.0 ml of the respective buffer solution is added, and the sample is vortexed. The sample solution is analysed by HPLC to determine the amount of the test compound and up to two byproducts at a particular time over a period of 24 h at 37° C. to values result from a sample immediately taken after vortexing with buffer at RT. The peak areas (in percentage) are used for quantification.

SUM149 [6] = experiment: Cytotoxicity in vitro in the presence and absence of elastase (MTT assay); type: cell-based; details: SUM149 cells, 72 h
Method: as §1

NCI H292 [7] = experiment: as above; type: cell-based, human; details: NCI H292 cells, 72 h
Method: as §1

HT29 [8] = experiment: as above; type: cell-based, human; details: HT29 cells, 72 h
Method: as §1

786-O [9] = experiment: as above; type: cell-based, human; details: 786-O cells, 72 h
Method: as §1

[10] = Compound stability in rat plasma; type: in vitro ADME; details: rat plasma at 37° C., 4-hour assay
Method: as §3
Method for measurement of stability in rat and human plasma: 1 mg of the test compound is dissolved in 0.5 ml acetonitrile/dimethylsulfoxide 1:1. For complete dissolution the HPLC vial is shaken and sonicated. While vortexing 20 μl of this solution are added to 1 ml 37° C. warm plasma. After 0.17, 0.5, 1, 1.5, 2 and 4 hours the enzymatic reaction is stopped by adding 100 μl of the compound plasma solution to a vial containing 300 μl acetonitrile/buffer pH3 (80:20) at RT. The mixture is centrifuged at 5000 rpm for 10 minutes. The supernatant is analyzed by HPLC to determine the amount of the test compound and up to two byproducts. To values result from a processed sample immediately taken after vortexing with plasma at RT. The peak areas (in percentage) are used for quantification. All data is given as percent area of the initial compound at to.

Row | SMILES | AC50 (NCI H292 [1]; no elastase) [nM] | AC50 (NCI H292 [1]; with elastase) [nM] | AC50 (HT29 [2]; no elastase) [nM] | AC50 (HT29 [2]; with elastase) [nM] | AC50 (786-O [3]; no elastase) [nM] | AC50 (786-O [3]; with elastase) [nM] | AC50 (SUM149 [4]; no elastase) [nM] | AC50 (SUM149 [4]; with elastase) [nM] | stability in buffer at pH 7.4 [5] | IC50 (SUM149 [6]; compound alone (no elastase)) [nM] | IC50 (SUM149 [6]; with 10 nM elastase) [nM] | IC50 (NCI H292 [7]; compound alone (no elastase)) [nM] | IC50 (NCI H292 [7]; with 10 nM elastase) [nM] | IC50 (HT29 [8]; compound alone (no elastase)) [nM] | IC50 (HT29 [8]; with 10 nM elastase) [nM] | IC50 (786-O [9]; compound alone (no elastase)) [nM] | IC50 (786-O [9]; with 10 nM elastase) [nM] | stability in rat plasma [10]
1 | CCCNC(=O)Nc1cccc(S(=O)(=O)Nc2cccc([C@@H](CC(=O)O)NC(=O)Nc3ccc(NC(=O)NCCOCCOCCOCCC(=O)NCCNC(=O)CC[C@H](NC(=O)CCCC(=O)NCCN(C)CCN(C)CCN(C)CC(=O)N[C@@H](CC(N)=O)C(=O)N4CCC[C@H]4C(=O)N[C@H](C(=O)O[C@]4(CC)C(=O)OCc5c4cc4n(c5=O)Cc5c-4nc4ccccc4c5CC)C(C)C)C(=O)NCCNC(=O)CCOCCOCCOCCNC(=O)Nc4ccc(NC(=O)N[C@H](CC(=O)O)c5cccc(NS(=O)(=O)c6cccc(NC(=O)NCCC)c6)c5)cc4)cc3)c2)c1 [Compound A9] | 110 to 1000 | ≤ 10 | > 1000 | 11 to 100 | 110 to 1000 | ≤ 10 | 110 to 1000 | ≤ 10 |  |  |  |  |  |  |  |  |  | 
2 | CCCNC(=O)Nc1cccc(S(=O)(=O)Nc2cccc([C@@H](CC(=O)O)NC(=O)Nc3ccc(NC(=O)N(C)CCN(C)CCN(C)CC(=O)N[C@@H](CC(N)=O)C(=O)N4CCC[C@H]4C(=O)N[C@H](C(=O)O[C@]4(CC)C(=O)OCc5c4cc4n(c5=O)Cc5c-4nc4ccccc4c5CC)C(C)C)cc3)c2)c1 [Compound B1, (4S)-4,11-diethyl-3,14-dioxo-3,4,12,14-tetrahydro-1H-pyrano[3′,4′:6,7]indolizino[1,2-b]quinolin-4-yl N-{2-[{2-[({4-[({(1R)-2-carboxy-1-[3-({3-[(propylcarbamoyl)amino]benzene-1-sulfonyl}amino)phenyl]ethyl}carbamoyl)amino]phenyl}carbamoyl)(methyl)amino]ethyl} (methyl)amino]ethyl}-N-methylglycyl-L-asparaginyl-L-prolyl-L-valinate] |  |  |  |  |  |  |  |  | stable | 10 to 100 | 0.01 to 0.1 | 10 to 100 | 0.1 to 1 | > 100 | 0.1 to 1 | 10 to 100 | 0.1 to 1 | stable
3 | CCCNC(=O)Nc1cccc(S(=O)(=O)Nc2cccc([C@@H](CC(=O)O)NC(=O)Nc3ccc(NC(=O)NCCOCCOCCOCCC(=O)N[C@@H](CC(=O)OCCC[N+](C)(C)C)C(=O)N4CCC[C@H]4C(=O)N[C@H](C(=O)O[C@]4(CC)C(=O)OCc5c4cc4n(c5=O)Cc5c-4nc4ccccc4c5CC)C(C)C)cc3)c2)c1 [Compound C5, trifluoroacetate] | 110 to 1000 | ≤ 10 | > 1000 | 11 to 100 | 110 to 1000 | ≤ 10 | 110 to 1000 | ≤ 10 |  |  |  |  |  |  |  |  |  | 
4 | CCCNC(=O)Nc1cccc(S(=O)(=O)Nc2cccc([C@@H](CC(=O)O)NC(=O)Nc3ccc(NC(=O)N(C)CC(=O)N(C)CC(=O)N(C)CC(=O)N(C)CC(=O)N(C)CC(=O)N(C)CC(=O)N(C)CC(=O)N(C)CC(=O)N[C@@H](CC(=O)O)C(=O)N4CCC[C@H]4C(=O)N[C@H](C(=O)O[C@]4(CC)C(=O)OCc5c4cc4n(c5=O)Cc5c-4nc4ccccc4c5CC)C(C)C)cc3)c2)c1 [Compound D3] ({X1-CO}-[Sar][Sar][Sar][Sar][Sar][Sar][Sar][Sar]DPV-{Camptothecin(7-Et)}) | 110 to 1000 | ≤ 10 | 110 to 1000 | 11 to 100 | 110 to 1000 | ≤ 10 | 110 to 1000 | ≤ 10 |  |  |  |  |  |  |  |  |  | 
5 | CCCNC(=O)Cc1cccc(S(=O)(=O)Nc2cccc([C@@H](CC(=O)O)NC(=O)Nc3ccc(NC(=O)NCCOCCOCCOCCC(=O)NCCNC(=O)[C@H](CCC(=O)NCCNC(=O)CCOCCOCCOCCNC(=O)Nc4ccc(NC(=O)N[C@H](CC(=O)O)c5cccc(NS(=O)(=O)c6cccc(NC(=O)NCCC)c6)c5)cc4)NC(=O)CCCC(=O)NCCN(C)CCN(C)CCN(C)CC(=O)NCC(=O)N4CCC[C@H]4C(=O)N[C@H](C(=O)O[C@]4(CC)C(=O)OCc5c4cc4n(c5=O)Cc5c-4nc4ccccc4c5CC)C(C)C)cc3)c2)c1 [Compound A11] | ≤ 10 | ≤ 10 | 110 to 1000 | 11 to 100 | 11 to 100 | ≤ 10 | ≤ 10 | ≤ 10 |  |  |  |  |  |  |  |  |  | 
6 | CCCNC(=O)Nc1cccc(S(=O)(=O)Nc2cccc([C@@H](CC(=O)O)NC(=O)Nc3ccc(NC(=O)NCCOCCOCCOCCC(=O)N[C@@H](CC(=O)O)C(=O)N4CCC[C@H]4C(=O)N[C@@H](C)C(=O)O[C@]4(CC)C(=O)OCc5c4cc4n(c5=O)Cc5c-4nc4ccccc4c5CC)cc3)c2)c1 [Compound C10, disodium (4S)-4,11-diethyl-3,14-dioxo-3,4,12,14-tetrahydro-1H-pyrano[3′,4′:6,7]indolizino[1,2-b]quinolin-4-yl 1-[(2S)-2-(carboxylatomethyl)-17-{4-[({(1R)-2-carboxylato-1-[3-({3-[(propylcarbamoyl)amino]benzene-1-sulfonyl}amino)phenyl]ethyl}carbamoyl)amino]anilino}-4,17-dioxo-7,10,13-trioxa-3,16-diazaheptadecanan-1-oyl]-L-prolyl-L-alaninate] | 11 to 100 | ≤ 10 | 110 to 1000 | 11 to 100 | 11 to 100 | ≤ 10 | 11 to 100 | ≤ 10 |  |  |  |  |  |  |  |  |  | 
7 | CCCNC(=O)Nc1cccc(S(=O)(=O)Nc2cccc([C@@H](CC(=O)O)NC(=O)Nc3ccc(NC(=O)N(C)CC(=O)N(C)CC(=O)N(C)CC(=O)N(C)CC(=O)N[C@@H](CC(=O)O)C(=O)N4CCC[C@H]4C(=O)N[C@H](C(=O)O[C@]4(CC)C(=O)OCc5c4cc4n(c5=O)Cc5c-4nc4ccccc4c5CC)C(C)C)cc3)c2)c1 [Compound B6] ({X1-CO}-[Sar][Sar][Sar][Sar]DPV-{Camptothecin(7-Et)}) | 110 to 1000 | ≤ 10 | > 1000 | 11 to 100 | 110 to 1000 | ≤ 10 | 110 to 1000 | ≤ 10 |  |  |  |  |  |  |  |  |  | 
8 | CCCNC(=O)Nc1cccc(S(=O)(=O)Nc2cccc([C@H](CC(=O)O)NC(=O)Nc3ccc(NC(=O)NCCOCCOCCOCCC(=O)NCCNC(=O)CC[C@H](NC(=O)CCCC(=O)NCCN(C)CCN(C)CCN(C)CC(=O)NCC(=O)N4CCC[C@H]4C(=O)N[C@H](C(=O)O[C@]4(CC)C(=O)OCc5c4cc4n(c5=O)Cc5c-4nc4ccccc4c5CC)C(C)C)C(=O)NCCNC(=O)CCOCCOCCOCCNC(=O)Nc4ccc(NC(=O)N[C@@H](CC(=O)O)c5cccc(NS(=O)(=O)c6cccc(NC(=O)NCCC)c6)c5)cc4)cc3)c2)c1 [Compound A12] | 11 to 100 | ≤ 10 | 110 to 1000 | 11 to 100 | ≤ 10 | ≤ 10 | ≤ 10 | ≤ 10 |  |  |  |  |  |  |  |  |  | 
